Where a name gives a salt, the structure may show the parent alone.
First: COc1cc(-c2nc3ccccc3o2)ccc1-c1ccccn1 (as salt: hydrochloride) [Example 54, 2-(3-Methoxy-4-pyridin-2-ylphenyl)-1,3-benzoxazole hydrochloride salt]
Second: N#CCc1ccc(-c2nc3ccccc3o2)cc1-c1cccc(C#N)c1 [Example 4, 5′-(1,3-Benzoxazol-2-yl)-2′-(cyanomethyl)-1,1′-biphenyl-3-carbonitrile]
The melting point of the first is higher: 215 °C for the first, 175 to 176 °C for the second.

First: N#CCc1ccc(-c2nc3ccccc3o2)cc1Br [Example 1, [4-(1,3-Benzoxazol-2-yl)-2-bromnophenyl]acetonitrile]
Second: N#CCc1ccc(-c2nc3ccccc3o2)cc1N [Example 7, [2-Amino-4-(1,3-benzoxazol-2-yl)phenyl]acetonitrile]
The melting point of the first is lower: 190 to 191 °C for the first, 198 to 199 °C for the second.

Compound `N#CCc1ccc(-c2nc3ccccc3o2)cc1[N+](=O)[O-]` [Example 6, [4-(1,3-Benzoxazol-2-yl)-2-nitrophenyl]acetonitrile] has a melting point of 203 °C.

From patent US20050065340A1, “Metabotropic glutamate receptor-5 modulators” (priority 2001, published 2005)
